Data on 37 substances can be found in the OligoGym collection.

Oligonucleotides are written 5' to 3', each unit as a sugar letter and its base; * is a phosphorothioate linkage, no mark a phosphodiester; rarer units and linkages stand in square brackets, end groups in braces. Plain capitals give the bases only. Oligonucleotides are given in HELM: sugar(base)linkage, 5' to 3'; d 2'-deoxyribose, r ribose, m 2'-O-methylribose, p phosphate. ss, as = sense and antisense strand; d = 2'-deoxy (DNA); r = 2'-OH (RNA)
Also: test concentration or dose not given here.

One series has as its target SOST. Nature of the series: reporter assay of Huesken 2005. Particulars: siRNA. A general note: In a reporter assay the amount or activity of a reporter protein is the signal.
As to “RNA1{r(G)p.r(A)p.r(A)p.r(C)p.r(G)p.r(G)p.r(A)p.r(G)p.r(G)p.r(G)p.r(C)p.r(G)p.r(G)p.r(C)p.r(C)p.r(U)p.r(C)p.r(C)p.r(C)p.d(T)p.d(T)}|RNA2{r(G)p.r(G)p.r(G)p.r(A)p.r(G)p.r(G)p.r(C)p.r(C)p.r(G)p.r(C)p.r(C)p.r(C)p.r(U)p.r(C)p.r(C)p.r(G)p.r(U)p.r(U)p.r(C)p.d(T)p.d(C)}$$$RNA1{StrandType:ss}|RNA2{StrandType:as}$”, the normalised inhibition (eCFP-eYFP dual reporter) stood at 52.6%.
Take “RNA1{r(C)p.r(C)p.r(G)p.r(C)p.r(A)p.r(G)p.r(C)p.r(G)p.r(C)p.r(C)p.r(A)p.r(A)p.r(G)p.r(C)p.r(C)p.r(G)p.r(G)p.r(U)p.r(C)p.d(T)p.d(T)}|RNA2{r(G)p.r(A)p.r(C)p.r(C)p.r(G)p.r(G)p.r(C)p.r(U)p.r(U)p.r(G)p.r(G)p.r(C)p.r(G)p.r(C)p.r(U)p.r(G)p.r(C)p.r(G)p.r(G)p.d(C)p.d(A)}$$$RNA1{StrandType:ss}|RNA2{StrandType:as}$”: the normalised inhibition (eCFP-eYFP dual reporter) came out at 51.3%.
The substance “RNA1{r(C)p.r(C)p.r(G)p.r(C)p.r(G)p.r(A)p.r(G)p.r(C)p.r(U)p.r(G)p.r(C)p.r(A)p.r(C)p.r(U)p.r(U)p.r(C)p.r(A)p.r(C)p.r(C)p.d(T)p.d(T)}|RNA2{r(G)p.r(G)p.r(U)p.r(G)p.r(A)p.r(A)p.r(G)p.r(U)p.r(G)p.r(C)p.r(A)p.r(G)p.r(C)p.r(U)p.r(C)p.r(G)p.r(C)p.r(G)p.r(G)p.d(C)p.d(A)}$$$RNA1{StrandType:ss}|RNA2{StrandType:as}$” came in with a normalised inhibition (eCFP-eYFP dual reporter) of 66.8%.
As to “RNA1{r(G)p.r(G)p.r(G)p.r(G)p.r(U)p.r(G)p.r(G)p.r(C)p.r(A)p.r(G)p.r(G)p.r(C)p.r(G)p.r(U)p.r(U)p.r(C)p.r(A)p.r(A)p.r(G)p.d(T)p.d(T)}|RNA2{r(C)p.r(U)p.r(U)p.r(G)p.r(A)p.r(A)p.r(C)p.r(G)p.r(C)p.r(C)p.r(U)p.r(G)p.r(C)p.r(C)p.r(A)p.r(C)p.r(C)p.r(C)p.r(C)p.d(T)p.d(G)}$$$RNA1{StrandType:ss}|RNA2{StrandType:as}$”, the normalised inhibition (eCFP-eYFP dual reporter) came out at 48.7%.
“RNA1{r(G)p.r(U)p.r(G)p.r(C)p.r(C)p.r(G)p.r(C)p.r(A)p.r(G)p.r(C)p.r(G)p.r(C)p.r(C)p.r(A)p.r(A)p.r(G)p.r(C)p.r(C)p.r(G)p.d(T)p.d(T)}|RNA2{r(C)p.r(G)p.r(G)p.r(C)p.r(U)p.r(U)p.r(G)p.r(G)p.r(C)p.r(G)p.r(C)p.r(U)p.r(G)p.r(C)p.r(G)p.r(G)p.r(C)p.r(A)p.r(C)p.d(G)p.d(G)}$$$RNA1{StrandType:ss}|RNA2{StrandType:as}$” gave a normalised inhibition (eCFP-eYFP dual reporter) of 49.6%.
Turning to “RNA1{r(A)p.r(G)p.r(C)p.r(U)p.r(G)p.r(C)p.r(U)p.r(G)p.r(U)p.r(G)p.r(U)p.r(C)p.r(C)p.r(C)p.r(G)p.r(G)p.r(U)p.r(G)p.r(G)p.d(T)p.d(T)}|RNA2{r(C)p.r(C)p.r(A)p.r(C)p.r(C)p.r(G)p.r(G)p.r(G)p.r(A)p.r(C)p.r(A)p.r(C)p.r(A)p.r(G)p.r(C)p.r(A)p.r(G)p.r(C)p.r(U)p.d(G)p.d(C)}$$$RNA1{StrandType:ss}|RNA2{StrandType:as}$”, the normalised inhibition (eCFP-eYFP dual reporter) stood at 66%.
The substance “RNA1{r(G)p.r(G)p.r(G)p.r(C)p.r(G)p.r(G)p.r(C)p.r(C)p.r(U)p.r(C)p.r(C)p.r(C)p.r(C)p.r(A)p.r(C)p.r(C)p.r(A)p.r(C)p.r(C)p.d(T)p.d(T)}|RNA2{r(G)p.r(G)p.r(U)p.r(G)p.r(G)p.r(U)p.r(G)p.r(G)p.r(G)p.r(G)p.r(A)p.r(G)p.r(G)p.r(C)p.r(C)p.r(G)p.r(C)p.r(C)p.r(C)p.d(T)p.d(C)}$$$RNA1{StrandType:ss}|RNA2{StrandType:as}$” showed a normalised inhibition (eCFP-eYFP dual reporter) of 64.3%.
Take “RNA1{r(C)p.r(G)p.r(C)p.r(G)p.r(C)p.r(G)p.r(C)p.r(G)p.r(C)p.r(G)p.r(C)p.r(A)p.r(A)p.r(G)p.r(G)p.r(U)p.r(G)p.r(C)p.r(G)p.d(T)p.d(T)}|RNA2{r(C)p.r(G)p.r(C)p.r(A)p.r(C)p.r(C)p.r(U)p.r(U)p.r(G)p.r(C)p.r(G)p.r(C)p.r(G)p.r(C)p.r(G)p.r(C)p.r(G)p.r(C)p.r(G)p.d(G)p.d(C)}$$$RNA1{StrandType:ss}|RNA2{StrandType:as}$”: the normalised inhibition (eCFP-eYFP dual reporter) amounted to 60.6%.

The target in a further series is UBE2V1. Nature of the series: reporter assay of Huesken 2005. Particulars: siRNA.
Take “sense rUrCrGrGrCrGrCrCrUrArArUrGrArUrGrUrCrUdTdT / antisense rArGrArCrArUrCrArUrUrArGrGrCrGrCrCrGrAdAdG”: the normalised inhibition (eCFP-eYFP dual reporter) amounted to 78.8%.
The substance “sense rCrArArArGrUrUrGrUrCrCrUrGrCrArArGrArGdTdT / antisense rCrUrCrUrUrGrCrArGrGrArCrArArCrUrUrUrGdAdT” showed a normalised inhibition (eCFP-eYFP dual reporter) of 71.5%.
As for “sense rGrCrCrUrArArUrGrArUrGrUrCrUrArArArGrAdTdT / antisense rUrCrUrUrUrArGrArCrArUrCrArUrUrArGrGrCdGdC”, the normalised inhibition (eCFP-eYFP dual reporter) is 94.5%.
“sense rArArArUrUrUrCrArCrUrGrCrArArArGrGrArGdTdT / antisense rCrUrCrCrUrUrUrGrCrArGrUrGrArArArUrUrUdTdC” showed a normalised inhibition (eCFP-eYFP dual reporter) of 45.8%.
“sense rCrUrArGrArArGrArUrGrArCrGrArArGrArCrAdTdT / antisense rUrGrUrCrUrUrCrGrUrCrArUrCrUrUrCrUrArGdAdC” came in with a normalised inhibition (eCFP-eYFP dual reporter) of 88.8%.
For the substance “sense rUrCrUrArGrArArGrArUrGrArCrGrArArGrArCdTdT / antisense rGrUrCrUrUrCrGrUrCrArUrCrUrUrCrUrArGrAdCdC”, the normalised inhibition (eCFP-eYFP dual reporter) stood at 58%.
“sense rCrUrUrGrArArCrCrUrArGrArArArArUrUrUrCdTdT / antisense rGrArArArUrUrUrUrCrUrArGrGrUrUrCrArArGdTdC”: the normalised inhibition (eCFP-eYFP dual reporter) was found to be 53.5%.
For the substance “sense rArArUrArUrArCrArGrCrCrUrUrArArArArUrAdTdT / antisense rUrArUrUrUrUrArArGrGrCrUrGrUrArUrArUrUdCdG”, the normalised inhibition (eCFP-eYFP dual reporter) came to 82.9%.
In the case of “sense rCrGrArArUrArUrArCrArGrCrCrUrUrArArArAdTdT / antisense rUrUrUrUrArArGrGrCrUrGrUrArUrArUrUrCrGdGdT”, the normalised inhibition (eCFP-eYFP dual reporter) worked out at 89.4%.
“sense rUrArUrArGrCrArUrCrArArArGrUrUrGrUrCrCdTdT / antisense rGrGrArCrArArCrUrUrUrGrArUrGrCrUrArUrAdTdG” returned a normalised inhibition (eCFP-eYFP dual reporter) of 47%.
As for “sense rCrCrUrCrCrArArGrArArCrArArUrUrUrArUrGdTdT / antisense rCrArUrArArArUrUrGrUrUrCrUrUrGrGrArGrGdCdC”, the normalised inhibition (eCFP-eYFP dual reporter) turned out to be 63.1%.
Turning to “sense rUrGrGrArArGrArArCrUrCrGrArArGrArArGrGdTdT / antisense rCrCrUrUrCrUrUrCrGrArGrUrUrCrUrUrCrCrAdAdC”, the normalised inhibition (eCFP-eYFP dual reporter) worked out at 59.9%.
The substance “sense rArGrGrArGrUrArGrGrArGrArUrGrGrCrArCrAdTdT / antisense rUrGrUrGrCrCrArUrCrUrCrCrUrArCrUrCrCrUdTdT” gave a normalised inhibition (eCFP-eYFP dual reporter) of 92.3%.
“sense rCrArArGrArGrCrUrUrCrGrGrCrGrCrCrUrArAdTdT / antisense rUrUrArGrGrCrGrCrCrGrArArGrCrUrCrUrUrGdCdA” showed a normalised inhibition (eCFP-eYFP dual reporter) of 84.1%.
The same measure, in the same setting: as for “sense rGrCrArArGrArGrCrUrUrCrGrGrCrGrCrCrUrAdTdT / antisense rUrArGrGrCrGrCrCrGrArArGrCrUrCrUrUrGrCdAdG”, the figure is 82.6%; as for “sense rUrCrCrCrUrCrArGrCrCrGrCrCrCrGrArArGrGdTdT / antisense rCrCrUrUrCrGrGrGrCrGrGrCrUrGrArGrGrGrAdGdT”, 46.6%; as for “sense rUrUrCrCrGrArCrUrGrUrUrGrGrArArGrArArCdTdT / antisense rGrUrUrCrUrUrCrCrArArCrArGrUrCrGrGrArAdAdT”, 52.3%.
Same read-out and setting: the figure for “sense rGrUrCrUrArGrArArGrArUrGrArCrGrArArGrAdTdT / antisense rUrCrUrUrCrGrUrCrArUrCrUrUrCrUrArGrArCdCdC” is 92%; for “sense rUrGrGrCrArGrArArUrUrCrArUrArUrArGrCrAdTdT / antisense rUrGrCrUrArUrArUrGrArArUrUrCrUrGrCrCrAdTdT” it is 89.7%; for “sense rUrGrArGrUrGrArUrGrArArGrGrArArGrArCrUdTdT / antisense rArGrUrCrUrUrCrCrUrUrCrArUrCrArCrUrCrAdGdT” it is 62.3%.
Substance “sense rGrArGrCrCrArUrArUrCrArGrUrGrCrUrArGrCdTdT / antisense rGrCrUrArGrCrArCrUrGrArUrArUrGrGrCrUrCdTdT” came in with a normalised inhibition (eCFP-eYFP dual reporter) of 90.9%.
On the same count and under the same terms, as for “sense rCrCrUrCrArGrCrCrGrCrCrCrGrArArGrGrArCdTdT / antisense rGrUrCrCrUrUrCrGrGrGrCrGrGrCrUrGrArGrGdGdA”, the figure is 55.2%; as for “sense rUrUrGrUrCrCrUrGrCrArArGrArGrCrUrUrCrGdTdT / antisense rCrGrArArGrCrUrCrUrUrGrCrArGrGrArCrArAdCdT”, 51.9%; as for “sense rGrArArArArUrUrUrCrArCrUrGrCrArArArGrGdTdT / antisense rCrCrUrUrUrGrCrArGrUrGrArArArUrUrUrUrCdTdA”, 83.7%.
The same measure, in the same setting: the figure for “sense rGrCrArGrArArUrUrCrArUrArUrArGrCrArUrCdTdT / antisense rGrArUrGrCrUrArUrArUrGrArArUrUrCrUrGrCdCdA” is 82%; for “sense rGrGrArUrGrArUrArArUrUrGrGrGrCrCrUrCrCdTdT / antisense rGrGrArGrGrCrCrCrArArUrUrArUrCrArUrCrCdCdT” it is 70.5%; for “sense rArUrUrUrCrArCrUrGrCrArArArGrGrArGrUrAdTdT / antisense rUrArCrUrCrCrUrUrUrGrCrArGrUrGrArArArUdTdT” it is 95%.
Regarding “sense rGrArArGrArUrGrArCrGrArArGrArCrArUrGrAdTdT / antisense rUrCrArUrGrUrCrUrUrCrGrUrCrArUrCrUrUrCdTdA”, the normalised inhibition (eCFP-eYFP dual reporter) worked out at 95%.
The substance “sense rArArArGrGrArGrUrArArArArGrUrCrCrCrUrCdTdT / antisense rGrArGrGrGrArCrUrUrUrUrArCrUrCrCrUrUrUdGdC” returned a normalised inhibition (eCFP-eYFP dual reporter) of 65.6%.
